By EC50 is commonly meant the concentration at which the effect is half-maximal.

Numbered stars: 1 amine (or outer) side, 2 acyl side, 3 side chain; on linkers, the order of the positions; unused ones are H or OH. Bridge positions count the residues as written; N and C are the ends. Square brackets hold non-standard residues; d marks the D form. Peptide text beside a SMILES is read from it. X16 = C=CCOC(=O)N1CC[C@@](N[*:1])(C(=O)[*:2])C1; X10 = CN(CC=[*:3])C[C@@](C)(N[*:1])C(=O)[*:2]; X14 = O=C([C@@]1(N[*:1])CCN(CC=[*:3])C1)[*:2]; R8 = C=CCCCCCC[C@@](C)(N)C(=O)O; S8 = C=CCCCCCC[C@](C)(N)C(=O)O

16 compounds from patent US11198713B2, “Agents modulating beta-catenin functions and methods thereof” (FOG PHARMACEUTICALS, INC., priority 2017, dated 2021) can be followed below.

The target in one test is T1, full-length beta-catenin (Axin site) (Homo sapiens, UniProt P35222).
T1 construct: 15 nM full-length beta-catenin, 20 nM FITC labeled peptide in buffer
T1 sequence (P35222 1-781): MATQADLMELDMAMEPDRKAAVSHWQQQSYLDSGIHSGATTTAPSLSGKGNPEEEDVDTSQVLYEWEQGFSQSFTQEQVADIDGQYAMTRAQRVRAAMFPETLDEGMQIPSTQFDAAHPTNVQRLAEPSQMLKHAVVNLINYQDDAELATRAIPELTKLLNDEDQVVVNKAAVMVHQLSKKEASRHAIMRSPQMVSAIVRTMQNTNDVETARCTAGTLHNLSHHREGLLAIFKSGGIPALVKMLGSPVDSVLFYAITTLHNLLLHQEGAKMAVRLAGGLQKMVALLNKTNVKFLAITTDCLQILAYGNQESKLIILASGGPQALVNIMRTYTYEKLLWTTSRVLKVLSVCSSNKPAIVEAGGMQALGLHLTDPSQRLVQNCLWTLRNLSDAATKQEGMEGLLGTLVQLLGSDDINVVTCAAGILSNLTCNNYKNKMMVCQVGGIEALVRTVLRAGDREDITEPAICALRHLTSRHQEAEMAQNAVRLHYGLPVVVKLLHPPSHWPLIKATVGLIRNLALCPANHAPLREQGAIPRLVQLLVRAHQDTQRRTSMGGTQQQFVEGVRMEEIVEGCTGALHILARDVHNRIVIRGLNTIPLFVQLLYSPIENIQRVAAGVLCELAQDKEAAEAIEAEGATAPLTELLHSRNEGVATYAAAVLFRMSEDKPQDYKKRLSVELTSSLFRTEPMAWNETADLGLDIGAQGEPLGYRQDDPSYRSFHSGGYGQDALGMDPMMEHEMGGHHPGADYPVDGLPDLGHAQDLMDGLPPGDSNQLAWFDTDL
The experiment in a line: Competition fluorescence polarization assay (Axin site probe). As to conditions: competition fluorescence polarization, Table 2; read-out: in vitro FP EC50. Format: binding. The method in brief:
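Competition FP: 15 nM full-length β-catenin pre-incubated 5 min with 20 nM FITC-labelled stapled Axin-site peptide, then titrated peptide added (3-fold series from 5 μM) for 15 min in the dark. Buffer 50 mM Tris pH 8.0, 250 mM NaCl, 2% glycerol, 0.5 mM EDTA; duplicate reads.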
A general note: Fluorescence polarisation rises when a labelled molecule tumbles more slowly, as on binding a larger partner.
Regarding `CC[C@H](C)[C@@H]1NC(=O)[C@@]2(NC(=O)[C@H](C)NC(=O)[C@@H]3CCCN3C(C)=O)CCN(C2)C(=O)OCC=CCCCCCC[C@@](C)(C(=O)N[C@@H](CCCNC(=N)N)C(=O)N[C@H](C(=O)N[C@@H](Cc2c[nH]c3ccccc23)C(N)=O)C(C)C)NC(=O)[C@H](C(C)C)NC(=O)[C@H](Cc2c[nH]cn2)NC(=O)[C@H](C)NC(=O)[C@H](CC(=O)O)NC(=O)[C@H](CC(C)C)NC1=O` [FP0005c, Ac-P-A-MC-I-L-D-A-H-V-S8-R-V-W-NH2], the EC50 is under 100 nM.

Take `CC[C@H](C)[C@@H]1NC(=O)[C@@]2(NC(=O)[C@H](C)NC(=O)[C@@H]3CCCN3C(C)=O)CCN(CC=CCCCCCC[C@@](C)(C(=O)N[C@@H](CCCNC(=N)N)C(=O)N[C@H](C(=O)N[C@@H](Cc3c[nH]c4ccccc34)C(N)=O)C(C)C)NC(=O)[C@H](C(C)C)NC(=O)[C@H](Cc3c[nH]cn3)NC(=O)[C@H](C)NC(=O)[C@H](CC(=O)O)NC(=O)[C@H](CC(C)C)NC1=O)C2` [FP0006a, Ac-P-A-MC-I-L-D-A-H-V-S8-R-V-W-NH2] (Ac-PA[X14]ILDAHV[S8]RVW-NH2; staple 3-10): the EC50 was under 100 nM.

In the case of `C=CCCCCCC[C@@](C)(NC(=O)[C@H](C)NC(C)=O)C(=O)N[C@H](C(=O)N[C@@H](CC(C)C)C(=O)N[C@@H](CC(=O)O)C(=O)N[C@@H](C)C(=O)N[C@@H](Cc1c[nH]cn1)C(=O)N[C@H](C(=O)N[C@@]1(C(=O)N[C@@H](CCCNC(=N)N)C(=O)N[C@H](C(=O)N[C@@H](Cc2c[nH]c3ccccc23)C(N)=O)C(C)C)CCN(C(=O)OCC=C)C1)[C@@H](C)CC)[C@@H](C)CC` [FP0217u, Ac-A-R8-I-L-D-A-H-I-MB-R-V-W-NH2] (Ac-A[R8]ILDAHI[X16]RVW-NH2), the EC50 was under 100 nM.

As to `CC[C@H](C)[C@@H]1NC(=O)[C@H](Cc2c[nH]cn2)NC(=O)[C@H](C)NC(=O)[C@H](CC(N)=O)NC(=O)[C@H](CC(C)C)NC(=O)[C@H]([C@@H](C)CC)NC(=O)[C@](C)(NC(=O)[C@H](C)NC(C)=O)CCCCCCC=CCOC(=O)N2CC[C@@](C(=O)N[C@@H](CCCNC(=N)N)C(=O)N[C@H](C(=O)N[C@@H](Cc3c[nH]c4ccccc34)C(N)=O)C(C)C)(C2)NC1=O` [FP0218c, Ac-A-R8-I-L-N-A-H-I-MB-R-V-W-NH2], the concentration giving a half-maximal response (EC50) was 100 to 500 nM.

For the compound `CC[C@H](C)[C@@H]1NC(=O)[C@H](Cc2c[nH]cn2)NC(=O)[C@H](C)NC(=O)[C@H]([C@@H](C)O)NC(=O)[C@H](CC(C)C)NC(=O)[C@H]([C@@H](C)CC)NC(=O)[C@](C)(NC(=O)[C@H](C)NC(C)=O)CCCCCCC=CCOC(=O)N2CC[C@@](C(=O)N[C@@H](CCCNC(=N)N)C(=O)N[C@H](C(=O)N[C@@H](Cc3c[nH]c4ccccc34)C(N)=O)C(C)C)(C2)NC1=O` [FP0219c, Ac-A-R8-I-L-T-A-H-I-MB-R-V-W-NH2], the EC50 was 100 to 500 nM.

As for `CC[C@H](C)[C@@H]1NC(=O)[C@H](Cc2c[nH]cn2)NC(=O)[C@H](C)NC(=O)[C@H](CC(=O)O)NC(=O)[C@H](CC(C)C)NC(=O)[C@H]([C@@H](C)CC)NC(=O)[C@](C)(NC(=O)[C@H](C)NC(C)=O)CN(C)CC=CCCCCCC[C@@](C)(C(=O)N[C@@H](CCCNC(=N)N)C(=O)N[C@H](C(=O)N[C@@H](Cc2c[nH]c3ccccc23)C(N)=O)C(C)C)NC1=O` [FP0335a, Ac-A-ME-I-L-D-A-H-I-S8-R-V-W-NH2] (Ac-A[X10]ILDAHI[S8]RVW-NH2; staple 2-9), the EC50 lay in the range of 100 to 500 nM.

As to `CC[C@H](C)[C@@H]1NC(=O)[C@H](Cc2c[nH]cn2)NC(=O)[C@H](C)NC(=O)[C@H](CC(=O)O)NC(=O)[C@H](CC(C)C)NC(=O)[C@H](C)NC(=O)[C@](C)(NC(=O)[C@H](C)NC(C)=O)CCCCCCC=CCOC(=O)N2CC[C@@](C(=O)N[C@@H](CCCNC(=N)N)C(=O)N[C@H](C(=O)N[C@@H](Cc3c[nH]c4ccccc34)C(N)=O)C(C)C)(C2)NC1=O` [FP0405c, Ac-A-R8-A-L-D-A-H-I-MB-R-V-W-NH2], the 50% effective concentration (EC50) lay in the range of 500 to 5000 nM.

Turning to `CC[C@H](C)[C@@H]1NC(=O)[C@H](Cc2c[nH]cn2)NC(=O)[C@H](C)NC(=O)[C@H](CC(=O)O)NC(=O)[C@H](C)NC(=O)[C@H]([C@@H](C)CC)NC(=O)[C@](C)(NC(=O)[C@H](C)NC(C)=O)CCCCCCC=CCOC(=O)N2CC[C@@](C(=O)N[C@@H](CCCNC(=N)N)C(=O)N[C@H](C(=O)N[C@@H](Cc3c[nH]c4ccccc34)C(N)=O)C(C)C)(C2)NC1=O` [FP0406c, Ac-A-R8-I-A-D-A-H-I-MB-R-V-W-NH2], the EC50 lay within 100 to 500 nM.

Take `CC[C@H](C)[C@@H]1NC(=O)[C@H](Cc2c[nH]cn2)NC(=O)[C@H](C)NC(=O)[C@H](C)NC(=O)[C@H](CC(C)C)NC(=O)[C@H]([C@@H](C)CC)NC(=O)[C@](C)(NC(=O)[C@H](C)NC(C)=O)CCCCCCC=CCOC(=O)N2CC[C@@](C(=O)N[C@@H](CCCNC(=N)N)C(=O)N[C@H](C(=O)N[C@@H](Cc3c[nH]c4ccccc34)C(N)=O)C(C)C)(C2)NC1=O` [FP0407c, Ac-A-R8-I-L-A-A-H-I-MB-R-V-W-NH2]: the concentration for a half-maximal effect (EC50) was 500 to 5000 nM.

As to `CC[C@H](C)[C@@H]1NC(=O)[C@H](C)NC(=O)[C@H](C)NC(=O)[C@H](CC(=O)O)NC(=O)[C@H](CC(C)C)NC(=O)[C@H]([C@@H](C)CC)NC(=O)[C@](C)(NC(=O)[C@H](C)NC(C)=O)CCCCCCC=CCOC(=O)N2CC[C@@](C(=O)N[C@@H](CCCNC(=N)N)C(=O)N[C@H](C(=O)N[C@@H](Cc3c[nH]c4ccccc34)C(N)=O)C(C)C)(C2)NC1=O` [FP0408c, Ac-A-R8-I-L-D-A-A-I-MB-R-V-W-NH2], the EC50 is over 5000 nM.

With `CC[C@H](C)[C@@H]1NC(=O)[C@](C)(NC(=O)[C@H](C)NC(C)=O)CCCCCCC=CCOC(=O)N2CC[C@@](C(=O)N[C@@H](CCCNC(=N)N)C(=O)N[C@H](C(=O)N[C@@H](Cc3c[nH]c4ccccc34)C(N)=O)C(C)C)(C2)NC(=O)[C@H](C)NC(=O)[C@H](Cc2c[nH]cn2)NC(=O)[C@H](C)NC(=O)[C@H](CC(=O)O)NC(=O)[C@H](CC(C)C)NC1=O` [FP0409c, Ac-A-R8-I-L-D-A-H-A-MB-R-V-W-NH2], the 50% effective concentration (EC50) was over 5000 nM.

On to `CC[C@H](C)[C@@H]1NC(=O)[C@H](Cc2c[nH]cn2)NC(=O)[C@H](C)NC(=O)[C@H](CC(=O)O)NC(=O)[C@H](CC(C)C)NC(=O)[C@H]([C@@H](C)CC)NC(=O)[C@](C)(NC(=O)[C@H](C)NC(C)=O)CCCCCCC=CCOC(=O)N2CC[C@@](C(=O)N[C@@H](C)C(=O)N[C@H](C(=O)N[C@@H](Cc3c[nH]c4ccccc34)C(N)=O)C(C)C)(C2)NC1=O` [FP0410c, Ac-A-R8-I-L-D-A-H-I-MB-A-V-W-NH2], for which the EC50 lay in the range of 100 to 500 nM.

The same test, now with this note: competition with FITC labeled Axin-site probe, 15 nM full-length beta-catenin; read-out: FP EC50.
Take `CC[C@H](C)[C@@H]1NC(=O)[C@](C)(NC(=O)[C@H](CCC(N)=O)NC(=O)[C@@H]2CCCN2C(C)=O)CCCC=CCN(C)CC[C@](C)(C(=O)N[C@@H](Cc2c[nH]cn2)C(=O)N[C@H](C(=O)N[C@@H](CCCNC(=N)N)C(=O)N[C@@H](CCCNC(=N)N)C(=O)N[C@H](C(=O)N[C@@H](Cc2c[nH]c3ccccc23)C(=O)N[C@@H](CCCNC(=N)N)C(N)=O)C(C)C)C(C)C)NC(=O)[C@H](CC(=O)O)NC(=O)[C@H](CC(C)C)NC1=O` (single isomer, unassigned) [FP-0776, Ac-P-Q-R5-I-L-D-RdN-H-V-R-R-V-W-R-NH2]: the 50% effective concentration (EC50) was found to be 580 nM.

In the case of `CC[C@H](C)[C@@H]1NC(=O)[C@@](C)(NC(=O)[C@H](CCC(N)=O)NC(=O)[C@@H]2CCCN2C(C)=O)CCN(C)C(=O)OCC=CCCC[C@@](C)(C(=O)N[C@@H](Cc2c[nH]cn2)C(=O)N[C@H](C(=O)N[C@@H](CCCNC(=N)N)C(=O)N[C@@H](CCCNC(=N)N)C(=O)N[C@H](C(=O)N[C@@H](Cc2c[nH]c3ccccc23)C(=O)N[C@@H](CCCNC(=N)N)C(N)=O)C(C)C)C(C)C)NC(=O)[C@H](CC(=O)O)NC(=O)[C@H](CC(C)C)NC1=O` (single isomer, unassigned) [FP-0779c, Ac-P-Q-SdN-I-L-D-S5-H-V-R-R-V-W-R-NH2], the EC50 was determined as 1300 nM.

For `CC[C@H](C)[C@@H]1NC(=O)[C@](C)(NC(=O)[C@H](CCC(N)=O)NC(=O)[C@@H]2CCCN2C(C)=O)CCCN(C)CC=CCCC[C@](C)(C(=O)N[C@@H](Cc2c[nH]cn2)C(=O)N[C@H](C(=O)N[C@@H](CCCNC(=N)N)C(=O)N[C@@H](CCCNC(=N)N)C(=O)N[C@H](C(=O)N[C@@H](Cc2c[nH]c3ccccc23)C(=O)N[C@@H](CCCNC(=N)N)C(N)=O)C(C)C)C(C)C)NC(=O)[C@H](CC(=O)O)NC(=O)[C@H](CC(C)C)NC1=O` (single isomer, unassigned) [FP-0783, Ac-P-Q-ReN-I-L-D-R5-H-V-R-R-V-W-R-NH2], the EC50 amounted to 1400 nM.

Turning to `CC[C@H](C)[C@@H]1NC(=O)[C@@](C)(NC(=O)[C@H](CCC(N)=O)NC(=O)[C@@H]2CCCN2C(C)=O)CCCC=CCCC[C@@](C)(C(=O)N[C@@H](Cc2c[nH]cn2)C(=O)N[C@H](C(=O)N[C@@H](CCCNC(=N)N)C(=O)N[C@@H](CCCNC(=N)N)C(=O)N[C@H](C(=O)N[C@@H](Cc2c[nH]c3ccccc23)C(=O)N[C@@H](CCCNC(=N)N)C(N)=O)C(C)C)C(C)C)NC(=O)[C@H](CC(=O)O)NC(=O)[C@H](CC(C)C)NC1=O` (single isomer, unassigned) [FP-0787], the EC50 was about 100 nM.
